Laboratory results: patent US12528790B2, “Amide derivative having antiviral activity” (Shionogi & Co., Ltd., priority 2020, dated 2026)
Like-named read-outs stand apart in the source and are kept apart here.

What was measured:
RSV A2 strain = assay: In vitro CPE (CytoPathic Effect) inhibition effect evaluation test, RSV type A; format: cell-based
In short: (§1)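 HEp-2 cells (2.4×10^5 cells/mL, 2% FBS E-MEM) were infected with RSV alongside 3-fold compound dilutions and incubated at 37 °C, 4 days for A2 and 5 days for B Wash/18537. Viable cells quantified by CellTiter-Glo 2.0 luminescence; EC50 by nonlinear regression as 50% CPE inhibition.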

[1] = test system: RSV B (Wash/18537 strain); assay: In vitro CPE (CytoPathic Effect) inhibition effect evaluation test, RSV type B; format: cell-based
In short: as §1

[2] = human respiratory syncytial virus, inhibitory effect against RSV type A (RSV A2 strain), HEp-2 cells, CPE inhibition, read-out: EC50
[3] = human respiratory syncytial virus, inhibitory effect against RSV type B, CPE inhibition, read-out: EC50

Row | SMILES | EC50 (RSV A2 strain; [2]) | EC50 [1, 3] | other results
1 | CC(F)(F)c1nc(N2CC3(CCOCC3)c3cc(OC4CCC5(CC4)COC5)ccc32)ncc1C(=O)NC1(C(=O)O)C2CC3CC(C2)CC1C3 (stereo not shown) [Compound I-527] | < 10 nM | < 10 nM | 
2 | CC(F)(F)c1nc(N2CC3(CCCCC3)c3cc(O[C@H]4CC[C@H](N5CC(F)(F)C5)CC4)ccc32)ncc1C(=O)NC1(C(=O)O)C2CC3CC(C2)CC1C3 (stereo partly shown) [Compound I-443] | < 10 nM | < 10 nM | 
3 | COC[C@@H](C)n1cc(-c2ccc(C(=O)NC3(C(=O)O)C4CC5CC(C4)CC3C5)c(C(F)(F)F)n2)c2ccc(O[C@H]3CC[C@H](N4CC(F)(F)C4)CC3)cc21 (stereo partly shown) [Compound I-581] | < 10 nM | < 10 nM | 
4 | O=C(NC1(C(=O)O)CCCCC1)c1cnc(N2CC3(CCOCC3)c3cc(OCCC4CCOCC4)ccc32)nc1C(F)(F)F [Compound I-56] | < 10 nM | 10 to 100 nM | 
5 | O=C(NC1(C(=O)O)C2CC3CC(C2)CC1C3)c1cnc(-c2cn(C3CCC(F)(F)CC3)c3cc(OC4CC(CN5CC(F)(F)C5)C4)ccc23)nc1C(F)(F)F (single isomer, unassigned) [Compound I-516] | < 10 nM | 10 to 100 nM | 
6 | COCC(C)n1cc(-c2ncc(C(=O)NC3(C(=O)O)C4CC5CC(C4)CC3C5)c(C(F)(F)F)n2)c2ccc(OC3CCN(c4ncc(F)cn4)CC3)cc21 (racemic) [Compound I-430] | < 10 nM | < 10 nM | 
7 | O=C(NC1(C(=O)O)C2CC3CC(C2)CC1C3)c1cnc(N2CC3(CCOCC3)c3cc(OC4CCS(=O)(=O)CC4)ccc32)nc1C(F)(F)F (stereo not shown) [Compound I-203] | < 10 nM | < 10 nM | 
8 | O=C(NC1(C(=O)O)C2CC3CC(C2)CC1C3)c1cnc(N2CC3(CCCCC3)c3cc(OC4CN(CC(F)(F)F)C4)ccc32)nc1C(F)(F)F (stereo not shown) [Compound I-495] | < 10 nM | < 10 nM | 
9 | CN(C)CCCc1nc(N2CC3(CCOCC3)c3cc(OC4CCN(c5ncccn5)CC4)ccc32)nc(C(F)(F)F)c1C(=O)NC1(C(=O)O)C2CC3CC(C2)CC1C3 (stereo not shown) [Compound I-183] | < 10 nM | 10 to 100 nM | 
10 | CC(F)(F)c1nc(N2CC3(CCOCC3)c3cc(O[C@H]4CC[C@@H](N5CC(F)(F)C5)CC4)ccc32)ncc1C(=O)NC1(C(=O)O)C2CC3CC(C2)CC1C3 (stereo partly shown) [Compound I-586] | < 10 nM | < 10 nM | 
11 | CC(F)(F)c1nc(N2CC3(CCOCC3)c3cc(O[C@H]4CC[C@H](c5ncc(F)cn5)CC4)ccc32)ncc1C(=O)NC1(C(=O)O)C2CC3CC(C2)CC1C3 (stereo partly shown) [Compound I-562] | < 10 nM | < 10 nM | 
12 | N#Cc1cc(C(=O)NC2(C(=O)O)C3CC4CC(C3)CC2C4)c(C(F)(F)F)nc1N1CC2(CCOCC2)c2cc(OC3CCN(c4ncccn4)CC3)ccc21 (stereo not shown) [Compound I-276] | < 10 nM | < 10 nM | 
13 | CC(F)(F)c1nc(N2CC3(CCOCC3)c3cc(OC4CCN(CCC(F)(F)F)CC4)ccc32)ncc1C(=O)NC1(C(=O)O)C2CC3CC(C2)CC1C3 (stereo not shown) [Compound I-529] | < 10 nM | < 10 nM | 
14 | CC(F)(F)c1nc(N2CC3(CCOCC3)c3cc(OC4CCN(C5CS(=O)(=O)C5)CC4)ccc32)ncc1C(=O)NC1(C(=O)O)C2CC3CC(C2)CC1C3 (stereo not shown) [Compound I-593] | < 10 nM | < 10 nM | 
15 | O=C(NC1(C(=O)O)CCCCC1)c1cnc(N2CCc3cc(OC4CCN(c5ncccn5)CC4)ccc32)nc1C(F)(F)F [Compound I-36] | < 10 nM | 10 to 100 nM | 
16 | O=C(NC1(C(=O)O)C2CC3CC(C2)CC1C3)c1cnc(N2CC3(CCOC3)c3cc(OC4CCN(CC(F)(F)F)CC4)ccc32)nc1C(F)(F)F (racemic) [Compound I-467] | < 10 nM | < 10 nM | 
17 | O=C(NC1(C(=O)O)C2CC3CC(C2)CC1C3)c1cnc(-c2cn(C3CCC4(CC3)COC4)c3cc(OC4CCN(c5ncc(F)cn5)CC4)ccc23)nc1C(F)(F)F (stereo not shown) [Compound I-437] | < 10 nM | < 10 nM | 
18 | O=C(NC1(C(=O)O)C2CC3CC(C2)CC1C3)c1cnc(-c2cn(C3CCC(F)(F)CC3)c3cc(OC4CCC5(CC4)CN(CC(F)(F)F)C5)ccc23)nc1C(F)(F)F (stereo not shown) [Compound I-370] | < 10 nM | 10 to 100 nM | 
19 | COc1cccc(COc2ccc3c(c2)CCN3c2ncc(C(=O)NC3(C(=O)O)CCCCC3)c(C(F)(F)F)n2)c1 [Compound I-3] | 10 to 100 nM | 10 to 100 nM | 

Row | SMILES | EC50 (RSV A2 strain; [2]) | EC50 [1, 3] | other results
20 | O=C(NC1(C(=O)O)C2CC3CC(C2)CC1C3)c1cnc(-c2cn(C3CC3)c3cc(OC4CCN(c5ncc(F)cn5)CC4)ccc23)nc1C(F)(F)F (stereo not shown) [Compound I-379] | < 10 nM | < 10 nM | 
21 | COC1CCN(C(=O)c2ccc3c(c2)C2(CCCCC2)CN3c2ncc(C(=O)NC3(C(=O)O)C4CC5CC(C4)CC3C5)c(C(C)(F)F)n2)CC1 (stereo not shown) [Compound I-609] | < 10 nM | < 10 nM | 
22 | CCC1(CC)CN(c2ncc(C(=O)NC3(C(=O)O)C4CC5CC(C4)CC3C5)c(C(C)(F)F)n2)c2ccc(O[C@H]3CC[C@H](N4CC(F)(F)C4)CC3)cc21 (stereo partly shown) [Compound I-591] |  |  | EC50 (RSV A2 strain; human respiratory syncytial virus, HEp-2, 96 h, read-out: EC50, inhibitory effect against RSV type A (CPE inhibition)): 0.61 nM; EC50 ([1]; human respiratory syncytial virus, HEp-2, 120 h, HEp-2 cells, RSV B (Wash/18537 strain), 5 days, CellTiter-Glo, read-out: EC50, inhibitory effect against RSV type B (CPE inhibition)): 2.2 nM
23 | Cc1ccc2c(c1)C1(CCOCC1)CN2c1ncc(C(=O)NC2(C(=O)O)C3CC4CC(C3)CC2C4)c(C(F)(F)F)n1 (stereo not shown) [Compound I-109] |  |  | EC50 (RSV A2 strain; inhibitory effect against RSV type A (RSV A2 strain), HEp-2 cells, CPE inhibition, read-out: EC50): < 10 nM; EC50 ([1]; inhibitory effect against RSV type B, CPE inhibition, read-out: EC50): 10 to 100 nM
24 | O=C(NC1(C(=O)O)C2CC3CC(C2)CC1C3)c1ccc(-c2cn(C3CCC4(CC3)COC4)c3cc(O[C@H]4CC[C@H](N5CC(F)(F)C5)CC4)ccc23)nc1C(F)(F)F (stereo partly shown) [Compound I-582] | < 10 nM | < 10 nM | 
25 | CC(F)(F)c1nc(N2CC3(CCCCC3)c3cc(CN4CCN(c5ncccn5)CC4)ccc32)ncc1C(=O)NC1(C(=O)O)C2CC3CC(C2)CC1C3 (stereo not shown) [Compound I-464] | < 10 nM | 100 to 5000 nM | 
26 | CC(F)(F)c1nc(N2CC3(CCCC3)c3cc(OC4CCN(CC(F)(F)F)CC4)ccc32)ncc1C(=O)NC1(C(=O)O)C2CC3CC(C2)CC1C3 (stereo not shown) [Compound I-565] | < 10 nM | < 10 nM | 
27 | O=C(NC1(C(=O)O)C2CC3CC(C2)CC1C3)c1cnc(N2CC3(CCCCC3)c3cc(OC4CCN(CC5(F)COC5)CC4)ccc32)nc1C(F)(F)F (stereo not shown) [Compound I-484] | < 10 nM | 10 to 100 nM | 
28 | CC(F)(F)c1nc(N2CC3(CCCCC3)c3cc(OC4CCN(c5ncc(F)cn5)CC4)ncc32)ncc1C(=O)N[C@]1(C(=O)O)[C@@H]2CC3C[C@H]1C[C@@](F)(C3)C2 [Compound I-600] | < 10 nM | < 10 nM | 
29 | O=C(NC1(C(=O)O)C2CC3CC(C2)CC1C3)c1cnc(-c2cn(C3CCOCC3)c3cc(OC4CCN(c5ncc(F)cn5)CC4)ccc23)nc1C(F)(F)F (stereo not shown) [Compound I-431] | < 10 nM | < 10 nM | 
30 | O=C(NC1(C(=O)O)C2CC3CC(C2)CC1C3)c1cnc(-c2cn(C3CCC4(CC3)COC4)c3cc(O[C@H]4CC[C@H](N5CC(F)(F)C5)CC4)ccc23)nc1C(F)(F)F (stereo partly shown) [Compound I-498] | < 10 nM | < 10 nM | 
31 | O=C(NC1(C(=O)O)C2CC3CC(C2)CC1C3)c1cnc(N2CC3(CCCCC3)c3cc(OC4CCC5(CC4)COC5)ccc32)nc1C(F)(F)F (stereo not shown) [Compound I-399] | < 10 nM | 10 to 100 nM | 
32 | CC(F)(F)c1nc(N2CC3(CCCCC3)c3cc(-n4ncc5c4CCN(CC(F)(F)F)C5)ccc32)ncc1C(=O)NC1(C(=O)O)C2CC3CC(C2)CC1C3 (stereo not shown) [Compound I-607] | < 10 nM | < 10 nM | 
33 | CC(F)(F)c1nc(-c2cn(C3CCOCC3)c3cc(O[C@H]4CC[C@@H](N5CC(F)(F)C5)CC4)ccc23)ncc1C(=O)NC1(C(=O)O)C2CC3CC(C2)CC1C3 (stereo partly shown) [Compound I-547] | < 10 nM | < 10 nM | 
34 | O=C(NC1(C(=O)O)C2CC3CC(C2)CC1C3)c1ccc(-c2cn(C3CCC(F)(F)CC3)c3cc(O[C@H]4CC[C@H](N5CC(F)(F)C5)CC4)ccc23)nc1C(F)(F)F (stereo partly shown) [Compound I-452] | < 10 nM | < 10 nM | 
35 | COc1cnc(N2CCC(Oc3ccc4c(c3)C3(CCCCC3)CN4c3ncc(C(=O)NC4(C(=O)O)C5CC6CC(C5)CC4C6)c(C(F)(F)F)n3)CC2)nc1 (stereo not shown) [Compound I-522] | < 10 nM | < 10 nM | 
36 | CC(F)(F)c1nc(N2CC3(CCOCC3)c3cc(OC4CN(CC(F)(F)F)C4)ccc32)ncc1C(=O)NC1(C(=O)O)C2CC3CC(C2)CC1C3 (stereo not shown) [Compound I-592] | < 10 nM | < 10 nM | 
37 | O=C(NC1(C(=O)O)C2CC3CC(C2)CC1C3)c1cnc(-c2cn(-c3ccccn3)c3cc(OC4CCN(c5ncc(F)cn5)CC4)ccc23)nc1C(F)(F)F (stereo not shown) [Compound I-447] | < 10 nM | < 10 nM | 
38 | O=C(NC1(C(=O)O)C2CC3CC(C2)CC1C3)c1cnc(N2CC3(CCOCC3)c3cc(C(=O)N4CC(F)(F)C4)ccc32)nc1C(F)(F)F (stereo not shown) [Compound I-491] | < 10 nM | 10 to 100 nM | 
